Results from US6495699B2, “Metalloproteinase inhibitors, pharmaceutical compositions containing them, and their use” (Agouron Pharmaceuticals Inc., priority 1996, dated 2002).

Experiments:
Type in all cases: biochemical
[1] = target: T1, human progelatinase A (GelA), catalytic and fibronectin-like portion (Homo sapiens, UniProt P08253); test: Fluorometric MCA-peptide hydrolysis assay, gelatinase A (GelA); conditions: apparent Ki, 10 μM MCA peptide substrate, 37° C., pH 7.5; for Ki: read-out: GelA (Ki,app)
T1 construct: The catalytic and fibronectin-like portion of human progelatinase A (GelA) was expressed as a fusion protein with ubiquitin; ubiquitin; made in house; host or cells: E. coli
Method: The catalytic and fibronectin-like portion of human progelatinase A (GelA) was expressed as a fusion protein with ubiquitin in E. Coli. Assays were carried out on autocatalytically activated material.
(§1) Assays were performed in assay buffer (50 mM Tricine pH 7.5, 200 mM sodium chloride, 10 mM calcium chloride, 0.5 mM zinc acetate containing 2% dimethyl sulfoxide (DMSO)) once the substrate and inhibitor were diluted into it. Stock solutions of inhibitors were prepared in 100% DMSO. Stock solutions of the substrate were prepared in 100% DMSO at a concentration of 6 mM.
(§2) The assay method was based on the hydrolysis of MCA-Pro-Leu-Gly-Leu-DPA-Ala-Arg-NH2 (American Peptide Co.) at 37° C. (see Knight, C. G. et al., FEBS, 1992, 296, 263-266). The fluorescence changes were monitored with a Perkin-Elmer LS-50B fluorimeter using an excitation wavelength of 328 nm and an emission wavelength of 393 nm. The substrate concentration used in the assays was 10 μM. The inhibitor was diluted into the assays from a solution in 100% DMSO, and controls substituted an equal volume of DMSO so that the final DMSO concentration from inhibitor and substrate dilution in all assays was 2%. […] Proper determination of steady-state rates of substrate cleavage required assay lengths of 60 minutes to allow for complete equilibration of the enzyme-inhibitor complex.
(§3) The Km for the MCA peptide substrate with the matrix metalloproteinases is quite high and exceeds its solubility under assay conditions. Consequently, the apparent Ki (Ki,app) was determined to describe the strength of inhibition. However, in this case, Ki,app would be essentially equal to Ki since [S]<<Km. For the determination of Ki,app, the concentration of the inhibitor was varied at a constant and low concentration of substrate and the steady-state rates of fluorescence change determined. In most cases absorptive quench due to the presence of ligand was not observed. For slow-binding inhibitors, onset of inhibition curves were collected for at least 45 minutes so that equilibrium was established. Steady-state rates of fluorescence change were obtained by fitting a curve to an equation for a single exponential decay containing a linear phase. The fitted value of the linear phase was taken as the steady-state rate. The steady-state rates were fitted to the Michaelis equation describing competitive inhibition by non-linear methods. Data resulting from tight-binding inhibition was analyzed, and Ki,app determined by fitting the data to the tight-binding equation of Morrison (Biochem. Biophys. Acta, vol. 185, pp. 269-286 (1969)) by non-linear methods.

[2] = target: T2, catalytic domain of human stromelysin (Hsln) (Homo sapiens, UniProt P08254); test: Fluorometric MCA-peptide hydrolysis assay, stromelysin (Hsln); conditions: apparent Ki; 10 μM MCA peptide substrate, 37° C., pH 7.5; read-out: Hsln (Ki,app)
T2 construct: The catalytic domain of human stromelysin (Hsln) was obtained by expression and purification of a C-terminally truncated prostromelysin-1; made in house; host or cells: E. coli BL21
Method: The catalytic domain of human stromelysin (Hsln) was obtained by expression and purification of a C-terminally truncated prostromelysin-1 from E. coli host BL21 (see Marcy et al. Biochem., 1991, 30, 6476). The subsequent activation of the mature form (Hsln) was completed with 2 mM APMA for 1 hour at 37° C., followed by separation using a sizing column.
as §1, §2, §3

[3] = target: T3, human collagenase-3 (Coll3) (Homo sapiens, UniProt P45452); test: Fluorometric MCA-peptide hydrolysis assay, collagenase-3 (Coll3); conditions: apparent Ki; 10 μM MCA peptide substrate, 37° C., pH 7.5; read-out: Coll3 (Ki,app)
T3 construct: the catalytic domain was liberated by treatment with 2 mM APMA at room temperature overnight; ubiquitin (N, cleaved yes); made in house; host or cells: E. coli
Method: The propeptide and catalytic domain of human collagenase-3 (Coll3) was expressed in E. coli as an N-terminal fusion protein with ubiquitin. After purification of the fusion from inclusion bodies, the catalytic domain was liberated by treatment with 2 mM APMA at room temperature overnight. Final purification was completed using copper chelate chromatography.
as §1, §2
as §3, with “In most cases absorptive quench due to the presence of ligand was not observed.” left out

[4] = target: T4, Human matrilysin (Matr) (Homo sapiens, UniProt P09237); test: Fluorometric MCA-peptide hydrolysis assay, matrilysin (Matr); conditions: apparent Ki; 10 μM MCA peptide substrate, 37° C., pH 7.5; read-out: Matr (Ki,app)
T4 construct: the catalytic domain was liberated by treatment with 2 mM APMA at 37° C. for 2 hours; ubiquitin (cleaved yes); made in house; host or cells: E. coli
T4 sequence (P09237 95-267): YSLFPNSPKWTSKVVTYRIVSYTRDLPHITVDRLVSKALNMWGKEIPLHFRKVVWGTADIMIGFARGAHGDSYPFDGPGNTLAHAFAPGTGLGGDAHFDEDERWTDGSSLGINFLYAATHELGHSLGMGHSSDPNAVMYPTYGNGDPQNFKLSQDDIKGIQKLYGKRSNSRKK
Method: Human matrilysin (Matr) was expressed in E. coli as a fusion protein with ubiquitin. After purification of the matrilysin/ubiquitin fusion from inclusion bodies, the catalytic domain was liberated by treatment with 2 mM APMA at 37° C. for 2 hours. Final purification was complete using copper chelate chromatography.
as §1, §2, §3

T2 sequence (P08254 100-272 limits assumed): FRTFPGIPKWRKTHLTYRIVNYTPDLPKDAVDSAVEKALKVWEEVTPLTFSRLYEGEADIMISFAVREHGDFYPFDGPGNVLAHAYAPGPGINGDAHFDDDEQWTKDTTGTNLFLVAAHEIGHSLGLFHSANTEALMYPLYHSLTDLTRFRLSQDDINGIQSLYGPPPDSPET
T1 sequence (P08253 110-465 limits assumed): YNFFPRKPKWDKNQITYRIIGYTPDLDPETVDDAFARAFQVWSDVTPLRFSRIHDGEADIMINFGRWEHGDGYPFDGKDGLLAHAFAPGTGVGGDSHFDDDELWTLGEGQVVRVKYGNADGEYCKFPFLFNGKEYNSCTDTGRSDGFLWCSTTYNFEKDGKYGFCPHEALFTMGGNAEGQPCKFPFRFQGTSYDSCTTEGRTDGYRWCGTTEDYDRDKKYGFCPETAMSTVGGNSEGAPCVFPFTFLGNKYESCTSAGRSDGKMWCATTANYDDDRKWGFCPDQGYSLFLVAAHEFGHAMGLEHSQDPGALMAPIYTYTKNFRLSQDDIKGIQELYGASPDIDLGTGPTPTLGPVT

| Compound | GelA (Ki,app) [1] [nM] | Ki [2] [nM] | Ki [3] [nM] | Ki [4] [nM] | Ki [1] [nM] |
| --- | --- | --- | --- | --- | --- |
| CNC(=O)[C@@H](NC(=O)[C@@H](CC(=O)O)n1ccc(C(=O)Cc2ccc(C#N)cc2)c1)C(C)(C)C [Example 1(p), 3(R)-[3-[(4-Cyanophenyl)acetyl]-1H-pyrrol-1-yl]-N-(2,2-dimethyl-1(S)-(methylcarbamoyl)propyl]succinamic Acid] | 1230 | 55000 | – | – | – |
| O=C(O)C[C@H](C(=O)N[C@H](CO)Cc1ccccc1)c1ccc(-c2ccc(-c3ccccc3)cc2)o1 [Example 15(a), N-(1(S)-Benzyl-2-hydroxyethyl)-3(S)-(2-(biphenyl-4-yl)furan-5-yl)succinamic Acid] | 72 | 92 | 300 | – | – |
| CNC(=O)[C@@H](NC(=O)[C@@H](CC(=O)O)c1ccn(-c2ccc(-c3ccc(C#N)cc3)cc2)c1)C(C)(C)C [Example 14(b), 3(S)-[1-(4′-Cyanobiphenyl-4-yl)-1H-pyrrol-3-yl]-N-[2,2-dimethyl-1(S)-(methylcarbamoyl)propyl]succinamic Acid] | 0.012 | 1.3 | 0.028 | – | – |
| CC(=O)[C@H](CC(C)C)NC(=O)[C@@H](CC(=O)O)n1ccc(-c2ccc(-c3ccccc3)cc2)c1 [Example 2, N-(1(S)-Acetyl-3-methylbutyl)-3(R)-[3-(biphenyl-4-yl)-1H-pyrrol-1-yl)succinamic Acid] | 6.2 | 89 | 123 | 400 | – |
| CC(C)(C)[C@@H](CO)NC(=O)[C@@H](CC(=O)NO)n1ccc(-c2ccc(-c3ccncc3)cc2)c1 [Example 9, N^1-[2,2-Dimethyl-1(S)-(hydroxymethyl)propyl]-N^4-hydroxy-2(R)-[3-[4-(pyridin-4-yl)phenyl]-1H-pyrrol-1-yl]succinamide] | 0.011 | 0.2 | 0.018 | – | – |
| O=C(C[C@H](C(=O)N[C@H](CO)Cc1ccccc1)n1ccc(-c2ccc(-c3ccccc3)cc2)c1)NO [Example 8(a)] | 0.027 | 0.69 | – | 36 | – |
| O=C(O)C(F)(F)F.O=C(O)C[C@H](C(=O)N[C@H](CO)Cc1c[nH]cn1)n1ccc(-c2ccc(-c3ccccc3)cc2)c1 [Example 1(g), 3(R)-[3-(Biphenyl-4-yl)-1H-pyrrol-1-yl]-N-[2-hydroxy-1(S)-[(1H-imidazol-4-yl)methyl]ethyl]succinamic Acid Trifluoroacetate Salt] | 8.5 | 58 | 58.5 | – | – |
| 3(R)-[3-(4′-Cyanobiphenyl-4-yl)-1H-pyrrol-1-yl]-N-[2,2-dimethyl-1(S)-(hydroxymethyl)propyl]succinamic Acid Triethylammonium Salt [Example 5(g)] | – | 57 | 14.5 | – | 2.2 |
| CNC(=O)[C@@H](CC(=O)O)n1ccc(-c2ccc(-c3ccncc3)cc2)c1 [Example 7(d), N-Methyl-3(R)-[3-[4-(pyridin-4-yl)phenyl]-1H-pyrrol-1-yl]succinamic Acid] | 121 | 1580 | 284 | – | – |
| 3(R)-[3-(4-Cyanophenyl)-1H-pyrrol-1-yl]-N-(2,2-dimethyl-1(S)-(hydroxymethyl)propyl)succinamic Acid Triethylammonium Salt [Example 5(h)] | – | 650 | 43 | – | 17.4 |
| O=C(O)C[C@H](C(=O)N[C@@H]1CCCC[C@H]1O)n1ccc(-c2ccc(-c3ccccc3)cc2)c1 [Example 1(h), 3(R)-[3-(Biphenyl-4-yl)-1H-pyrrol-1-yl]-N-(2(R)-hydroxycyclohex-1(R)-yl)succinamic Acid] | 58 | 822 | 3000 | – | – |
| CCCC(C(=O)O)[C@H](C(=O)N[C@H](CO)Cc1ccccc1)n1ccc(-c2ccc(-c3ccc(C#N)cc3)cc2)c1 (mixture of isomers) [Example 10(b), 2(RS)-{1R-[1(S)-Benzyl-2-hydroxyethylcarbamoyl]-[3-(4′-cyano-biphenyl-4-yl)-1H-pyrrol-1-yl]-methyl}-pentanoic Acid] | 9.6 | 16 | 23.5 | 510 | – |
| O=C(O)C[C@H](C(=O)N[C@H](CO)Cc1ccccc1)n1ccc(-c2ccc(-c3ccccc3)cc2)c1 [1(a), N-(1(S)-Benzyl-2-hydroxyethyl)-3(R)-[3-(biphenyl-4-yl)-1H-pyrrol-1-yl]succinamic Acid] | 5.4 | 65 | 30 | 1000 | – |
| CC(C)(C)[C@@H](CO)NC(=O)[C@@H]([C@H](CCCO)C(=O)O)n1ccc(-c2ccc(-c3ccccc3)cc2)c1 [Example 11, 2S-[1R-(3-(Biphenyl-4-yl)-1H-pyrrol-1-yl)-1-(1(S)-hydroxymethyl-2,2-dimethyl-propylcarbamoyl)-methyl]-5-hydroxypentanoic Acid] | 60 | 62 | > 750 | – | – |
| CON(C)C(=O)[C@H](CC(C)C)NC(=O)[C@@H](CC(=O)O)n1ccc(-c2ccc(-c3ccccc3)cc2)c1 [Example 1(l)] | 54 | 317 | 227 | – | – |
| CNC(=O)[C@@H](NC(=O)C(CC(=O)O)c1ccc(-c2ccc(-c3ccccc3)cc2)o1)C(C)(C)C (stereo partly drawn) [Example 15(b), N-[2,2-Dimethyl-1(S)-(methylcarbamoyl)propyl]-3-(2-(biphenyl-4-yl)-furan-5-yl)succinamic Acid] | 91 | 122 | 1020 | – | – |
| C=CC[C@H](C(=O)O)[C@H](C(=O)N[C@H](CO)C(C)(C)C)n1ccc(-c2ccc(-c3ccccc3)cc2)c1 [Example 12, 2S, 2(1S)-[[3-(Biphenyl-4-yl)-1H-pyrrol-1R-yl]-[2,2-dimethyl-1(S)-(hydroxymethyl)propylcarbamoyl]methyl]pent-4-enoic Acid] | > 500 | > 500 | – | – | – |
